Measurements published in patent US8183206B2, “Drugs comprising combination of antithrombotic agent with pyrazolone derivative” (Mitsubishi Tanabe Pharma Corporation, priority 2001, dated 2012).

Columns and labels:
[1] = system: patients diagnosed as cerebral infarction; experiment: Function prognosis by modified ranking scale in cerebral infarction patients (Example 2); type: in vivo, human; settings: on leaving hospital within 1 month after start of administration
Experimental: Administration amount and method are shown below.
Sodium ozagrel: 80 mg of sodium ozagrel was dissolved in an adequate amount of an electrolyte solution or carbohydrate solution and the resulting solution was intravenously administered constantly for 2 weeks, twice daily, that is, in the morning and evening, each over 2 hours.
(§1) Argatroban: For the first two days, 60 mg/120 ml of argatroban was diluted with an adequate amount of a transfusion fluid and the resulting solution was intravenously infused constantly over 24 hours. For the following 5 days, 10 mg/20 ml of argatroban was diluted with an adequate amount of a transfusion fluid and the resulting solution was intravenously infused twice daily, that is, in the morning and evening, each over 3 hours.
Sodium ozagrel+edaravone: 80 mg of sodium ozagrel was dissolved in an adequate amount of an electrolyte solution or carbohydrate solution and the resulting solution was intravenously administered constantly for 2 weeks, twice daily, that is, in the morning and evening, each over 2 hours. At the same time, 30 mg/20 ml of edaravone was diluted with an adequate amount of physiological saline and the resulting solution was intravenously infused for 2 weeks, twice daily, that is, in the morning and evening, each over 20 minutes.
as §1, with “Argatroban+edaravone: For” for “Argatroban: For”, “3 hours; and at the same time, 30 mg/20 ml of edaravone was diluted with an adequate amount of physiological saline and the resulting solution was intravenously infused for 2 weeks twice daily, that is, in the morning and evening, each over 30 minutes.” for “3 hours.”
In the above-described table, what the meaning of grade will be explained briefly. Grade 0: no symptoms, Grade 1: some symptoms but non-significant disability (able to carry out all daily activities and affairs), Grade 2: slight disability (unable to carry out all previous activities but able to look after own affairs without assistance), Grade 3: moderate disability (requiring some help, but able to walk without assistance), Grade 4: relatively severe disability (requiring assistance for walk or daily activities), Grade 5: very severe disability (bedridden, incontinence and requiring constant nursing care and attention), Grade 6: death.

Wistar rat = experiment: Influence of t-PA on the bleeding time (tail transection, anesthetized rats); type: in vivo; settings: for Bleeding time: urethane anesthesia, t-PA 1 mg/kg constant i.v. infusion, edaravone 3 mg/kg i.v. 5 min before tail transection, average ± S.E., measured up to 30 min
Experimental: Via a cannula inserted into the femoral vein of each Wistar rat anesthetized with urethane (1.2 g/kg, i.p.), 1 mg/kg (1 mg=580000 IU; 4 mL/kg, 1 mL/hr) of physiological saline or t-PA was constantly infused. Fifty five minutes after the constant fusion was started, 3 mg of edaravone (3-methyl-1-phenyl-2-pyrazolin-5-one) or physiological saline was administered intravenously. Five minutes after that, the tail was transected at 2 mm from its tip immediately by using a razor. Every 15 seconds, the blood from the tail was blotted with a filter paper and the time until bleeding ceased was measured for up to 30 minutes.

[2] = system: patients in the acute stage of cerebral infarction; experiment: Comparative Example: edaravone alone, modified ranking scale, patients in the acute stage of cerebral infarction; type: in vivo, human; settings: edaravone used alone, within three months, from cited data
Experimental: Evaluation results of edaravone, when administered alone, in accordance with the modified ranking scale are included in Therapeutic Research, Vol. 19(4), 1333-1345, 1998.
Evaluation method and results: Edaravone (30 mg/20 ml) diluted with 100 ml of physiological saline was intravenously infused to 8 patients in the acute stage of cerebral infarction constantly for 14 days twice daily (morning and evening), each over 30 minutes. During the administration term of this medicament, administration of another medicament which might have an influence on the drug efficacy evaluation was avoided. Evaluation was made in accordance with the modified ranking scale three months after the initiation of the administration or upon discharge of the patient from the hospital within three months after the initiation of administration.

[3] = system: patients in the acute stage of cerebral infarction; settings: edaravone 30 mg i.v. twice daily for 14 days; evaluated three months after initiation or upon discharge within three months; cited from earlier work

Compound	Number of patients in Grade 0 (no symptoms), modified ranking scale [1]	Number of patients in Grade 1 (some symptoms but non-significant disability), modified ranking scale [1]	Number of patients in Grade 2 (slight disability), modified ranking scale [1]	Number of patients in Grade 3 (moderate disability), modified ranking scale [1]	Number of patients in Grade 4 (relatively severe disability), modified ranking scale [1]	Number of patients in Grade 5 (very severe disability), modified ranking scale [1]	Number of patients in Grade 6 (death), modified ranking scale [1]	Influence on bleeding time compared with the control group (physiological saline) (Wistar rat; t-PA 1 mg/kg, result in words)	Bleeding time (Wistar rat)	Ratio of Grade 0 [2]	Number of patients in Grade 0, modified ranking scale [3]	Number of patients in Grade 1 (some symptoms but non-significant disability), modified ranking scale [3]	Number of patients in Grade 2 (slight disability), modified ranking scale [3]	Number of patients in Grade 3, modified ranking scale [3]	Number of patients in Grade 4 (relatively severe disability), modified ranking scale [3]	Number of patients in Grade 5, modified ranking scale [3]	Number of patients in Grade 6, modified ranking scale [3]
O=C([O-])/C=C/c1ccc(Cn2ccnc2)cc1.[Na+] [OZA]	5	2	1	1	0	0	0										
t-PA: tissue plasminogen activator, thrombolytic agent; GRTPA (Mitsubishi Pharma Corporation) can be used								prolonged the bleeding time significantly	17.70 ± 2.85 min								
CC1CNc2c(cccc2S(=O)(=O)N[C@@H](CCCNC(=N)N)C(=O)N2CC[C@@H](C)C[C@@H]2C(=O)O)C1 (mixture of isomers) [NOV, (2R, 4R)4-methyl-1-[N^2-((RS)-3-methyl-1,2,3,4-tetrahydro-8-quinolinesulfonyl)-L-arginyl]-2-piperidinecarboxylic acid monohydrate]	1	1	2	1	0	3	0										
CC1=NN(c2ccccc2)C(=O)C1 [Edaravone, 3-methyl-1-phenyl-2-pyrazolin-5-one]									11.55 ± 2.31 min	0%	0	2	3	0	3	0	0
